Experimental data from patent US5223507A, “Method of using opioid compounds as delta opioid selective agonist analgesics” (G. D. Searle & Co., priority 1992, dated 1993).
Structures can show the parent of a compound that is named as a salt. Where two headings read alike, the source gives them in different places.

What was measured:
μ opioid receptors = μ opioid receptors (Rattus norvegicus, UniProt P33535); test: Opiate Binding Assay, displacement of 3[H]-DAMGO (μ receptor); settings: for Percent Inhibition, mu: at 100 nm, rat forebrain membranes, 3[H]-DAMGO
δ opioid receptors = δ opioid receptors (Rattus norvegicus, UniProt P33533); test: Opiate Binding Assay, displacement of 3[H]-DSLET (δ receptor); settings: for Mean IC50 μ/δ Ratio: ratio of mean IC50 values for μ and δ opioid receptors; for Percent Inhibition, delta: rat forebrain membranes, 3[H]-DSLET
mice = test: Phenylbenzoquinone (PBQ) Writhing Assay; type: in vivo, mouse (Charles River male albino mice); settings: for ED50: Mus musculus, 0.5 h
Text: The Writhing Assay is one of the most widely-used experimental procedures for measuring the analgesic activity of different narcotic and nonnarcotic analgesic agents, and involves the continuous, chemically-induced pain of visceral origin to an animal, such as a mouse or rat. [Gyires et al., Arch. int. Pharmacodyn, 267, 131-140 (1984); C. Vander Wende et al., Fed. Proc., 15, 494 (1956); Koster et al., Fed. Proc., 18, 412 (1959); and Witken et al., J. PharmacoI. exp. Tger., 133, 400-408 (1961).] Chemicals which may be used to induce this pain include phenylbenzoquinone (PBQ) and acetic acid. As a result of the chemical irritation to the animal, a characteristic stretching and writhing of the animal (dorsiflexion of the animal's back, extension of its hindlimbs and the strong contraction of its abdominal musculature) will generally occur. […] Drugs which reduce the number of writhes of the animal appear to restore the normal nociceptive threshold of the animal.
Charles River male albino mice, weighing 20 to 30 grams were used in this assay.
Thirty minutes after subcutaneous or intragastric administration to ten mice of either 10 mg or 30 mg per kilogram of body weight of a compound of the present invention ("test compound"), […] of body weight of a 0.025% w/v solution of PBQ was injected intraperitoneally into each mouse. Ten mice which were given saline in place of a test compound of the invention were used as a control group.
Five minutes later, each mouse was individually placed into a glass beaker for observation, and the number of writhes occurring during the following ten-minute period was counted.
A test compound was considered to be "active" in this assay (to have produced analgesia in a mouse) if, after the administration of the compound to the mouse, the number of writhes elicited by a mouse injected with PBQ was equal to, or less than, one-half the median number of writhes recorded for the saline-treated control group of mice that day, as described by Taber in "Predictive Value of Analgesic Assays in Mice and Rats," Advances in Biochemical Psychopharmacology, 8, 191 (1974).
The standard initial screening doses of a test compound employed in this assay were 10 and/or 30 […] for both routes of administration.

[1] = po, intragastric, 30 min before PBQ, read-out: PBQ WRITHING ASSAY ED50 (mpk) I.G.
[2] = sc, subcutaneous, 30 min before PBQ, read-out: PBQ WRITHING ASSAY ED50 (mpk) S.C.
[3] = intragastric, 30 min before PBQ
[4] = subcutaneous, screening doses 10 and/or 30 mpk

δ opioid receptors, sequence (P33533 whole entry): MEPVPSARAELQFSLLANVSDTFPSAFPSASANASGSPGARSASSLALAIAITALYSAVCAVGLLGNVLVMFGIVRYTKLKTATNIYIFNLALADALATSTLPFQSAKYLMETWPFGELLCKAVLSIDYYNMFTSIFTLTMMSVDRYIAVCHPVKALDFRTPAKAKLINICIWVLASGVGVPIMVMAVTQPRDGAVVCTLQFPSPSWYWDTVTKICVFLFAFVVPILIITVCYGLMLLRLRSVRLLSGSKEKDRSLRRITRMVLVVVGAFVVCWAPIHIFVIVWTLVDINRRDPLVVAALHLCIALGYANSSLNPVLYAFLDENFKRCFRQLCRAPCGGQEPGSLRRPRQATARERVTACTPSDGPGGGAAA
μ opioid receptors, sequence (P33535 whole entry): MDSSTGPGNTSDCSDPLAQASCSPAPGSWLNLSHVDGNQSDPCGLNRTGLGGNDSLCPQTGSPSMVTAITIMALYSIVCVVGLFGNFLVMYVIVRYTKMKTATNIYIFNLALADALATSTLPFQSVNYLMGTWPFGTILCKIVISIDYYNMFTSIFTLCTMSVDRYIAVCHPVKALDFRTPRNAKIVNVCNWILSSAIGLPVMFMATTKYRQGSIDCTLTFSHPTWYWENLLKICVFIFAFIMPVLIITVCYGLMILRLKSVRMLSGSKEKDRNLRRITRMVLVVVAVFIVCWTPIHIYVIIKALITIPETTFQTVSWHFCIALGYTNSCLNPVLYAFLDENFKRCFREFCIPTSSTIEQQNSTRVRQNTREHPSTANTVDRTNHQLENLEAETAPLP

Structure (SMILES)	IC50 (μ opioid receptors)	IC50 (δ opioid receptors)	Mean IC50 μ/δ Ratio (δ opioid receptors)	also measured
CN1CC[C@]23c4c5ccc(O)c4O[C@H]2c2[nH]c4ccccc4c2C[C@@]3(O)[C@H]1C5 [I, 5,6,7,8,14,14bβ-Hexahydro-7-methyl-4,8(R,α)-methano-4bS^* -benzofuro[2,3-a]pyrido[4,3-b]carbazole-1, 8aβ(9H)-diol, monohydrochloride]	152 nM	2.6 nM	58	–
CN1CC[C@]23c4c5ccc(O)c4O[C@H]2c2oc4ccccc4c2C[C@@]3(O)[C@H]1C5 [II, 6,7,8,14bβ-Tetrahydro-7-methyl-4,8(R,α)-methano-4bS^* -5H-bisbenzofuro[3,2-e:2',3'-g]isoquinoline-1, 8aβ(9H)-diol, monohydrochloride]	93 nM	5.4 nM	17	ED50 (mice; [1]): 2.4 mg/kg; ED50 (mice; [2]): 0.2 mg/kg
CN1CC[C@]23c4c5ccc(O)c4O[C@H]2c2[nH]c4c(ccc6ccccc64)c2C[C@@]3(O)[C@H]1C5 [III, 5,6,7,8,16, 16bβ-Hexahydro-7-methyl-4,8(R, α)-methano-4BS^* -benzo[i]benzofuro [2,3-a]pyrido[4,3-b]carbazole-1,8aβ(9H)-diol, monohydrochloride]	550 nM	20.8 nM	26	PBQ WRITHING ASSAY ED50 (mpk) I.G. (mice; [3]): inactive; Number of mice in 10 exhibiting inhibition of writhing, S.C. (mice; [4]): 5/10
COc1ccc2c3c1O[C@H]1c4oc5ccccc5c4C[C@@]4(OC)[C@@H](C2)N(C)CC[C@]314 [IV, 2 6,7,8,14bβ-Hexahydro-1,8aβ-(9H)-dimethoxy-7-methyl-4,8(R,α)-methano-4bS^* -5H-bisbenzofuro [3,2-e:2',3'-g]isoquinoline]	21200 nM	43.5 nM	446	ED50 (mice; [1]): 2.2 mg/kg; Number of mice in 10 exhibiting inhibition of writhing, S.C. (mice; [4]): 6/10
C=CCN1CC[C@]23c4c5ccc(O)c4O[C@H]2c2oc4ccccc4c2C[C@@]3(O)[C@H]1C5 [IX, 6,7,8,14β-Tetrahydro-7-(2-propenyl)-4,8(R,α)-methano-4bS^* -5H-bisbenzofuro[3,2-e:2',3'-g] isoquinoline-1,8aβ(9H)-diol, monohydrochloride]	236 nM	0.21 nM	1100	ED50 (mice; [1]): 3.9 mg/kg; ED50 (mice; [2]): 2.8 mg/kg
COc1ccc2c3c1O[C@H]1c4oc5ccccc5c4C[C@@]4(O)[C@@H](C2)N(C)CC[C@]314 [V, 6,7,8,14bβ-Tetrahydro-1-methoxy-7-methyl-4,8(R,α)-methano-4bS^* -5H-bisbenzofuro [3,2-e:2',3'-g]isoquinolin-8aβ(9H)-ol]	–	–	–	ED50 (mice; [1]): 2.7 mg/kg; PBQ WRITHING ASSAY ED50 (mpk) S.C. (mice; subcutaneous, 30 min before PBQ): inactive; Percent Inhibition, mu (μ opioid receptors): 2%; Percent Inhibition, delta (δ opioid receptors; at 100 nm): 72%
CN1CC[C@]23c4c5ccc(O)c4O[C@H]2c2[nH]c4c(Br)cc(Br)cc4c2C[C@@]3(O)[C@H]1C5 [VI, 11,13-Dibromo-5,6,7,8,14,14bβ-hexahydro-7-methyl-4,8(R,α)-methano-4bS^* -benzofuro[2,3-a]pyrido[4,3-b] carbazole-1,8aβ(9H)-diol, monohydrochloride]	–	–	–	PBQ WRITHING ASSAY ED50 (mpk) I.G. (mice; [3]): inactive; Number of mice in 10 exhibiting inhibition of writhing, S.C. (mice; [4]): 6/10; Percent Inhibition, delta (δ opioid receptors; 10 nm): 11%
CN1CC[C@]23c4c5ccc(O)c4O[C@H]2c2[nH]c4c(Br)cccc4c2C[C@@]3(O)[C@H]1C5 [VII, 13-Bromo-5,6,7,8,14bβ-hexahydro-7-methyl-4,8(R,α)-methano-4bS^* -benzofuro[2,3-a]pyrido [4,3-b]carbazole-1,8aβ(9H)-diol, monohydrochloride]	253 nM	10 nM	25.3	ED50 (mice; [1]): 2.3 mg/kg; ED50 (mice; [2]): 0.9 mg/kg
C=CCN1CC[C@]23c4c5ccc(O)c4O[C@H]2c2[nH]c4ccccc4c2C[C@@]3(O)[C@H]1C5 [VIII, 5,6,7,8,14,14bβ-Hexahydro-7(2-propenyl)-4,8 (R,α)-methano-4bS^* -benzofuro[2,3-a]pyrido[4,3-b] carbazole-1,8aβ(9H)-diol, monohydrochloride]	99 nM	1.4 nM	71	–
C=CCN1CC[C@]23c4c5ccc(O)c4O[C@H]2c2[nH]c4c(Br)cccc4c2C[C@@]3(O)[C@H]1C5 [X, 13-Bromo-5,6,7,8,14, 14bβ-hexahydro-7-(2-propenyl)-4,8(R,α)-methano-4bS^* -benzofuro [2,3-a]pyrido[4,3-b]carbazole-1,8aβ(9H)-diol monohydrochloride]	3900 nM	11.1 nM	350	Number of mice in 10 exhibiting inhibition of writhing, I.G. (mice; intragastric, screening doses 10 and/or 30 mpk): 5/10; Number of mice in 10 exhibiting inhibition of writhing, S.C. (mice; [4]): 5/10
CN1CC[C@]23c4c5ccc(O)c4O[C@H]2c2oc4ccccc4c2C[C@H]3[C@H]1C5 [XI, 6,7,8,8a,9,14bβ-Hexahydro-7-methyl-4,8(R,α)-methano-4bs^* -5H-bisbenzofuro[3,2-e:2',3'-g] isoquinolin-1-ol, monohydrochloride]	24 nM	3.5 nM	6.9	ED50 (mice; [2]): 2 mg/kg; PBQ WRITHING ASSAY ED50 (mpk) I.G. (mice; [3]): inactive
CN1CC[C@]23c4c5ccc(O)c4O[C@H]2c2[nH]c4ccccc4c2C[C@H]3[C@H]1C5 [XII, 5,6,7,8,8a,9,14, 14bβ-Octahydro-7-methyl-4,8(R,α)-methano-4bS^* -benzofuro[2,3-a] pyrido[4,3-b]carbazol-1-ol, monohydrochloride]	58 nM	4.9 nM	11.8	–
CN1CC[C@]23c4c5ccc(O)c4O[C@H]2c2[nH]c4c(Br)cccc4c2C[C@H]3[C@H]1C5 [XIII, 13-Bromo-5,6,7,8,8a,9,14,14bβ-octahydro-7-methyl-4,8(R,α)-methano-4bS^* -benzofuro [2,3-a]pyrido[4,3-b]carbazol-1-ol, monohydrochloride]	265 nM	52 nM	5.1	PBQ WRITHING ASSAY ED50 (mpk) I.G. (mice; [3]): inactive; Number of mice in 10 exhibiting inhibition of writhing, S.C. (mice; [4]): 4/10
CCCN1CC[C@]23c4c5ccc(O)c4O[C@H]2c2oc4ccccc4c2C[C@@]3(O)[C@H]1C5 [XIV, 6,7,8,14bβ-Tetrahydro-7-propyl-4,8(R,α)-methano-4bS^* -5H-bisbenzofuro[3,2-e:2',3'-g] isoquinoline-1,8aβ(9H)-diol, monohydrochloride]	200 nM	7.7 nM	26	–
CC(=O)O[C@@]12Cc3c([nH]c4ccccc34)[C@@H]3Oc4c(O)ccc5c4[C@@]31CCN(C)[C@@H]2C5 [XIX, 5,6,7,8,14,14bβ-Hexahydro-7-methyl-4,8(R,α-methano-4bS^* -benzofuro[2,3-a]pyrido[4,3-b]carbazole-1,8aβ-9H)-dio1,8a-acetate monohydrochloride]	769 nM	1 nM	769	–
Oc1ccc2c3c1O[C@H]1c4oc5ccccc5c4C[C@@]4(O)[C@@H](C2)N(CC2CCC2)CC[C@]314 [XV, 6,7,8,14bβ-Tetrahydro-7-(cyclobutylmethyl)-4,8 (R,α)-methano-4bS^* -5H-bisbenzofuro [3,2-e:2',3'-g]isoquinoline-1,8aβ(9H)-diol, monohydrochloride]	690 nM	5.1 nM	135	–
CC(=O)Oc1ccc2c3c1O[C@H]1c4[nH]c5ccccc5c4C[C@@]4(O)[C@@H](C2)N(C)CC[C@]314 [XVII, 5,6,7,8,14,14bβ-Hexahydro-7-methyl-4,8 (R,α)-methano-4bS^* -benzofuro[2,3-a] pyrido[4,3-b]carbazole-1,8aβ(9H)-diol, 1-acetate]	1300 nM	34 nM	38	–
CC(=O)Oc1ccc2c3c1O[C@H]1c4[nH]c5ccccc5c4C[C@@]4(OC(C)=O)[C@@H](C2)N(C)CC[C@]314 [XVIII, 5,6,7,8,14,14bβ-Hexahydro-7-methyl-4,8(R,α)-methano-4bS^* -benzofuro[2,3-a] pyrido[4,3-b]carbazole-1,8aβ-9H)-diol, diacetate, monohydrochloride]	–	66.4 nM	–	Percent Inhibition, mu (μ opioid receptors): 72%
